Literature values, collected in US20210307362A1, “Supplement for animal feed for sucking pigs” (Proviron Holding N.V., priority 2018, published 2021).

In the case of `CCCC(=O)OCC(COC(=O)CCC)OC(=O)CCC` [Glycerol tri butyrate], the solubility in water is listed as “insoluble in water”.
